In general, inhibition refers to how much of the control response was suppressed.

In publication PMC11576293, “New series of 4,6-diaryl pyrimidines: facile synthesis and antiproliferative activity as dual EGFR/VEGFR-2 inhibitors” (Frontiers in Chemistry, 2024) one finds inhibition data, which are given here for one compound.

A value given as a limit tells only on which side of the number the result lay.

The subject of one assay is SF-539. Nature of the assay: NCI-60 single-dose screen. The class given is cell-based. As to conditions: Homo sapiens, single dose 10 µM, '-' = no inhibition, read-out: % Growth Inhibition. An outline of the steps: (§1)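 NCI Developmental Therapeutics Program screen across 60 human cancer cell lines from nine tumor types; compounds tested at a single dose of 10 μM.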
As to `C=CCSc1nc(-c2ccc(OC)cc2)cc(-c2cccc(OC)c2)n1` [Compound 20, 2-(Allylthio)-6-(3-methoxyphenyl)-4-(4-methoxyphenyl)pyrimidine], the inhibition at 10 µM is below 0%.

In another assay the test system is A549/ATCC. The assay can be described thus: NCI-60 single-dose screen. The class given is cell-based. As to conditions: Homo sapiens, single dose 10 µM, '-' = no inhibition, read-out: % Growth Inhibition. An outline of the steps: as §1
Regarding `C=CCSc1nc(-c2ccc(OC)cc2)cc(-c2cccc(OC)c2)n1` [Compound 20, 2-(Allylthio)-6-(3-methoxyphenyl)-4-(4-methoxyphenyl)pyrimidine], the inhibition at 10 µM came to 1.93%.

The subject of another assay is PC-3. Nature of the assay: NCI-60 single-dose screen. As to conditions: Homo sapiens, single dose 10 µM, '-' = no inhibition, read-out: % Growth Inhibition. The class given is cell-based. The procedure, abridged:
as §1
For `C=CCSc1nc(-c2ccc(OC)cc2)cc(-c2cccc(OC)c2)n1` [Compound 20, 2-(Allylthio)-6-(3-methoxyphenyl)-4-(4-methoxyphenyl)pyrimidine], the inhibition at 10 µM is below 0%.

Another assay has as its system IGROV1. The assay can be described thus: NCI-60 single-dose screen. Format: cell-based. As to conditions: Homo sapiens, IGROV-1, single dose 10 µM, '-' = no inhibition, read-out: % Growth Inhibition. The procedure, abridged: as §1
Regarding `C=CCSc1nc(-c2ccc(OC)cc2)cc(-c2cccc(OC)c2)n1` [Compound 20, 2-(Allylthio)-6-(3-methoxyphenyl)-4-(4-methoxyphenyl)pyrimidine], the inhibition at 10 µM is below 0%.

Another assay has as its system SK-MEL-5. Nature of the assay: NCI-60 single-dose screen. The class given is cell-based. As to conditions: Homo sapiens, single dose 10 µM, '-' = no inhibition, read-out: % Growth Inhibition. The procedure, abridged: as §1
As for `C=CCSc1nc(-c2ccc(OC)cc2)cc(-c2cccc(OC)c2)n1` [Compound 20, 2-(Allylthio)-6-(3-methoxyphenyl)-4-(4-methoxyphenyl)pyrimidine], the inhibition at 10 µM came out at 1.41%.

Another assay concerns NCI-H23. Nature of the assay: NCI-60 single-dose screen. Format: cell-based. As to conditions: Homo sapiens, single dose 10 µM, '-' = no inhibition, read-out: % Growth Inhibition. An outline of the steps:
as §1
Turning to `C=CCSc1nc(-c2ccc(OC)cc2)cc(-c2cccc(OC)c2)n1` [Compound 20, 2-(Allylthio)-6-(3-methoxyphenyl)-4-(4-methoxyphenyl)pyrimidine], the inhibition at 10 µM turned out to be 1.43%.

The next assay has as its system M14. The assay can be described thus: NCI-60 single-dose screen. The class given is cell-based. As to conditions: Homo sapiens, single dose 10 µM, '-' = no inhibition, read-out: % Growth Inhibition. The procedure, abridged: as §1
As for `C=CCSc1nc(-c2ccc(OC)cc2)cc(-c2cccc(OC)c2)n1` [Compound 20, 2-(Allylthio)-6-(3-methoxyphenyl)-4-(4-methoxyphenyl)pyrimidine], the inhibition at 10 µM came to 4.9%.

In the next assay the test system is CCRF-CEM. The assay can be described thus: NCI-60 single-dose screen. The class given is cell-based. As to conditions: Homo sapiens, single dose 10 µM, '-' = no inhibition, read-out: % Growth Inhibition. The procedure, abridged:
as §1
In the case of `C=CCSc1nc(-c2ccc(OC)cc2)cc(-c2cccc(OC)c2)n1` [Compound 20, 2-(Allylthio)-6-(3-methoxyphenyl)-4-(4-methoxyphenyl)pyrimidine], the inhibition at 10 µM amounted to 3.61%.

Another assay relates to OVCAR-5. The assay can be described thus: NCI-60 single-dose screen. Format: cell-based. As to conditions: Homo sapiens, single dose 10 µM, '-' = no inhibition, read-out: % Growth Inhibition. An outline of the steps:
as §1
With `C=CCSc1nc(-c2ccc(OC)cc2)cc(-c2cccc(OC)c2)n1` [Compound 20, 2-(Allylthio)-6-(3-methoxyphenyl)-4-(4-methoxyphenyl)pyrimidine], the inhibition at 10 µM was below 0%.

For another assay, the system named is NCI-H460. The assay can be described thus: NCI-60 single-dose screen. The class given is cell-based. As to conditions: Homo sapiens, single dose 10 µM, '-' = no inhibition, read-out: % Growth Inhibition. An outline of the steps:
as §1
Regarding `C=CCSc1nc(-c2ccc(OC)cc2)cc(-c2cccc(OC)c2)n1` [Compound 20, 2-(Allylthio)-6-(3-methoxyphenyl)-4-(4-methoxyphenyl)pyrimidine], the inhibition at 10 µM was below 0%.

A further assay concerns SK-MEL-28. The assay can be described thus: NCI-60 single-dose screen. Format: cell-based. As to conditions: Homo sapiens, single dose 10 µM, '-' = no inhibition, read-out: % Growth Inhibition. An outline of the steps:
as §1
On to `C=CCSc1nc(-c2ccc(OC)cc2)cc(-c2cccc(OC)c2)n1` [Compound 20, 2-(Allylthio)-6-(3-methoxyphenyl)-4-(4-methoxyphenyl)pyrimidine], for which the inhibition at 10 µM was below 0%.

Another assay has as its system K-562. The assay can be described thus: NCI-60 single-dose screen. Format: cell-based. As to conditions: Homo sapiens, K562, single dose 10 µM, '-' = no inhibition, read-out: % Growth Inhibition. An outline of the steps: as §1
In the case of `C=CCSc1nc(-c2ccc(OC)cc2)cc(-c2cccc(OC)c2)n1` [Compound 20, 2-(Allylthio)-6-(3-methoxyphenyl)-4-(4-methoxyphenyl)pyrimidine], the inhibition at 10 µM is 11.8%.

The test system of another assay is SNB-19. The assay can be described thus: NCI-60 single-dose screen. As to conditions: Homo sapiens, single dose 10 µM, '-' = no inhibition, read-out: % Growth Inhibition. The class given is cell-based. The procedure, abridged:
as §1
Turning to `C=CCSc1nc(-c2ccc(OC)cc2)cc(-c2cccc(OC)c2)n1` [Compound 20, 2-(Allylthio)-6-(3-methoxyphenyl)-4-(4-methoxyphenyl)pyrimidine], the inhibition at 10 µM amounted to 5.77%.

In a further assay the test system is ACHN 1. Nature of the assay: NCI-60 single-dose screen. The class given is cell-based. As to conditions: Homo sapiens, single dose 10 µM, '-' = no inhibition, read-out: % Growth Inhibition. An outline of the steps: as §1
With `C=CCSc1nc(-c2ccc(OC)cc2)cc(-c2cccc(OC)c2)n1` [Compound 20, 2-(Allylthio)-6-(3-methoxyphenyl)-4-(4-methoxyphenyl)pyrimidine], the inhibition at 10 µM was below 0%.

The next assay concerns MDA-MB231/ATCC. Nature of the assay: NCI-60 single-dose screen. Format: cell-based. As to conditions: Homo sapiens, MDA-MB-231, single dose 10 µM, '-' = no inhibition, read-out: % Growth Inhibition. An outline of the steps: as §1
Take `C=CCSc1nc(-c2ccc(OC)cc2)cc(-c2cccc(OC)c2)n1` [Compound 20, 2-(Allylthio)-6-(3-methoxyphenyl)-4-(4-methoxyphenyl)pyrimidine]: the inhibition at 10 µM is below 0%.

A further assay concerns HL-60(TB). The assay can be described thus: NCI-60 single-dose screen. Format: cell-based. As to conditions: Homo sapiens, single dose 10 µM, '-' = no inhibition, read-out: % Growth Inhibition.
In the case of `C=CCSc1nc(-c2ccc(OC)cc2)cc(-c2cccc(OC)c2)n1` [Compound 20, 2-(Allylthio)-6-(3-methoxyphenyl)-4-(4-methoxyphenyl)pyrimidine], the inhibition at 10 µM was found to be 31.3%.

A further assay has as its system EKVX. Nature of the assay: NCI-60 single-dose screen. The class given is cell-based. As to conditions: Homo sapiens, single dose 10 µM, '-' = no inhibition, read-out: % Growth Inhibition. The procedure, abridged: as §1
With `C=CCSc1nc(-c2ccc(OC)cc2)cc(-c2cccc(OC)c2)n1` [Compound 20, 2-(Allylthio)-6-(3-methoxyphenyl)-4-(4-methoxyphenyl)pyrimidine], the inhibition at 10 µM was 4.8%.

The test system of a further assay is OVCAR-8. The assay can be described thus: NCI-60 single-dose screen. Format: cell-based. As to conditions: Homo sapiens, single dose 10 µM, '-' = no inhibition, read-out: % Growth Inhibition. An outline of the steps: as §1
For `C=CCSc1nc(-c2ccc(OC)cc2)cc(-c2cccc(OC)c2)n1` [Compound 20, 2-(Allylthio)-6-(3-methoxyphenyl)-4-(4-methoxyphenyl)pyrimidine], the inhibition at 10 µM was determined as 0.92%.

In the next assay the test system is NCI/ADR-RES. The assay can be described thus: NCI-60 single-dose screen. Format: cell-based. As to conditions: Homo sapiens, single dose 10 µM, '-' = no inhibition, read-out: % Growth Inhibition. The procedure, abridged:
as §1
Take `C=CCSc1nc(-c2ccc(OC)cc2)cc(-c2cccc(OC)c2)n1` [Compound 20, 2-(Allylthio)-6-(3-methoxyphenyl)-4-(4-methoxyphenyl)pyrimidine]: the inhibition at 10 µM is below 0%.

The subject of a further assay is 786-0. Nature of the assay: NCI-60 single-dose screen. The class given is cell-based. As to conditions: Homo sapiens, single dose 10 µM, '-' = no inhibition, read-out: % Growth Inhibition. The procedure, abridged: as §1
As to `C=CCSc1nc(-c2ccc(OC)cc2)cc(-c2cccc(OC)c2)n1` [Compound 20, 2-(Allylthio)-6-(3-methoxyphenyl)-4-(4-methoxyphenyl)pyrimidine], the inhibition at 10 µM is below 0%.

In the next assay the test system is SNB-75. The assay can be described thus: NCI-60 single-dose screen. Format: cell-based. As to conditions: Homo sapiens, single dose 10 µM, '-' = no inhibition, read-out: % Growth Inhibition. An outline of the steps: as §1
Regarding `C=CCSc1nc(-c2ccc(OC)cc2)cc(-c2cccc(OC)c2)n1` [Compound 20, 2-(Allylthio)-6-(3-methoxyphenyl)-4-(4-methoxyphenyl)pyrimidine], the inhibition at 10 µM was below 0%.

Another assay concerns MALME-3M. Nature of the assay: NCI-60 single-dose screen. The class given is cell-based. As to conditions: Homo sapiens, single dose 10 µM, '-' = no inhibition, read-out: % Growth Inhibition. The procedure, abridged:
as §1
Turning to `C=CCSc1nc(-c2ccc(OC)cc2)cc(-c2cccc(OC)c2)n1` [Compound 20, 2-(Allylthio)-6-(3-methoxyphenyl)-4-(4-methoxyphenyl)pyrimidine], the inhibition at 10 µM was below 0%.

The next assay relates to LOX IMVI. The assay can be described thus: NCI-60 single-dose screen. As to conditions: Homo sapiens, single dose 10 µM, '-' = no inhibition, read-out: % Growth Inhibition. Format: cell-based. The procedure, abridged: as §1
Regarding `C=CCSc1nc(-c2ccc(OC)cc2)cc(-c2cccc(OC)c2)n1` [Compound 20, 2-(Allylthio)-6-(3-methoxyphenyl)-4-(4-methoxyphenyl)pyrimidine], the inhibition at 10 µM stood at 7.36%.
